In US20250186391A1, “ORAL COMPLEMENT FACTOR D INHIBITORS” (BioCryst Pharmaceuticals, Inc., priority 2019, published 2025):
pIC50: −log10 of the molar value.

Biological target: Factor D (Homo sapiens (Human), UniProt P00746)
Experiment: Factor D esterolytic assay
Assay type: biochemical
Details: Z-Lys-SBzl substrate, 100 mM HEPES, 500 mM NaCl, pH 7.5, 10% DMSO; tested a minimum of three times; read-out: Measured Ki (IC50) Value for Compounds: IC50
Protocol: The IC50 value of a compound (i.e., the concentration of the compound that inhibits 50% of the enzymatic activity) was calculated according to the procedure reported in U.S. Pat. No. 6,653,340 B1, e.g., column 74 (incorporated by reference).
Specifically, the compounds were dissolved in a stock solution of DMSO at 10.0 or 100 mM. A portion of this stock solution was added to assay buffer in a final volume of 50 μL. Controls included buffer alone and enzyme solutions to which DMSO was added. Substrate was added to the reaction wells immediately or after incubation at room temperature. The reaction rates were measured spectrophotometrically by the generation of product at 405 nm for 600 sec. Background absorbance at 690 nm was measured and subtracted from the absorbance at 405 nm for each well.
The reaction rate for enzyme alone was compared to the rate of enzyme in the presence of inhibitor and the percent inhibition was calculated as shown below: […]
An established esterolytic assay for the measurement of Factor D activity and inhibition of Factor D activity was used (Kam, C. M.; McRae, B. J.; Harper, J. W.; Niemann, M. A.; Volanakis, J. E.; Powers, J. C. Human complement proteins D, C2, and B Active site mapping with peptide thioester substrates. J Biol. Chem. 1987, 262, 3444-3451). For this assay Z-Lys-SBzl, 1.29 mM (Kim, S.; Narayana, S. V. L; Volanakis, J. E. Mutational analysis of the substrate binding site of human complement Factor D. Biochemistry. 1994, 33, 14393-14399.) was used as the substrate for Factor D ([…]). Hydrolysis of this compound by Factor D liberated a free sulfhydryl group which is then reacted with 5,5′-dithiobis(2nitrobenzoic acid) producing an intense yellow color (Habeeb, A. F. S. A. Reaction of protein sulfhydryl groups with Ellman's Reagent. Methods in Enzymol. 1976, 25, 457-464.). The assays were performed in 96 well microtiter plates and rates of hydrolysis were monitored at 405 nm on a Biotek Synergy H1 plate reader. Hydrolysis rates were reported as change in mOD/min. The assay was conducted in 100 mM HEPES, 500 mM NaCl, pH 7.5 containing 10% DMSO in a final volume of 50 μL per well.
An IC50, a compound concentration which inhibits 50% of the enzymatic activity, was calculated. Compounds in the examples were tested a minimum of three times.

Chain of Factor D (P00746 26-253): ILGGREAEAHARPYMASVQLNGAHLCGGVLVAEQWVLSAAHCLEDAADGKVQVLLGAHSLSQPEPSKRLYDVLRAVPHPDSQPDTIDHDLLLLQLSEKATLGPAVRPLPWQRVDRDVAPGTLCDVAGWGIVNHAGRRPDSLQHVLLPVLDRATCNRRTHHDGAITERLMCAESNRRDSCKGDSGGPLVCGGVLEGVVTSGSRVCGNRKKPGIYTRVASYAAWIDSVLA

Row | Structure (SMILES) | pIC50
1 | Cc1cc2occ(COc3ccccc3CC(=O)O)c2cc1-c1cccc(CN)c1 [Compound 70f, 2-(2-((5-(3-(aminomethyl)phenyl)-6-methylbenzofuran-3-yl)methoxy)phenyl)acetic acid] | 5.00 to 6.00
2 | COCCc1oc2ccc(-c3cccc(CN)c3)cc2c1COc1ccccc1CC(=O)O [Compound 175h, 2-(2-((5-(3-(aminomethyl)phenyl)-2-(2-methoxyethyl)benzofuran-3-yl)methoxy)phenyl)acetic acid] | > 6.00
3 | COc1c(-c2ccc3c(c2)c(COc2ccccc2CC(=O)O)nn3C2CCCC2)ccnc1CN [Compound 327d, 2-(2-((5-(2-(aminomethyl)-3-methoxypyridin-4-yl)-1-cyclopentyl-1H-indazol-3-yl)methoxy)phenyl)acetic acid] | 5.00 to 6.00
4 | COc1cc(-c2cccc(CN)c2)cc2c(COc3c(C)cccc3CC(=O)O)coc12 [Compound 237c, 2-(2-((5-(3-(aminomethyl)phenyl)-7-methoxybenzofuran-3-yl)methoxy)-3-methylphenyl)acetic acid] | > 6.00
5 | CC(C)(C)c1oc2ccc(-c3cccc(CN)c3)cc2c1COc1ccccc1CC(=O)O [Compound 171i, 2-(2-((5-(3-(aminomethyl)phenyl)-2-(tert-butyl)benzofuran-3-yl)methoxy)phenyl)acetic acid] | > 6.00
6 | NCc1cccc(-c2cc(NCC3CCOC3)c3occ(COc4ccccc4CC(=O)O)c3c2)c1 (centres unmarked) [Compound 147d, 2-(2-((5-(3-(aminomethyl)phenyl)-7-(((tetrahydrofuran-3-yl)methyl)amino)benzofuran-3-yl)methoxy)phenyl)acetic acid] | > 6.00
7 | NCc1cccc(-c2ccc3nnc(COc4ccccc4CC(=O)O)n3c2)c1 [Compound 212d, 2-(2-((6-(3-(aminomethyl)phenyl)-[1,2,4]triazolo[4,3-a]pyridin-3-yl)methoxy)phenyl)acetic acid] | > 6.00
8 | CCOC(=O)Cc1ccccc1OCc1cc(-c2cccc(CN)c2)c2oc(COc3ccccc3CC(=O)O)cc2c1 [Compound 22e, 2-(2-((7-(3-(aminomethyl)phenyl)-5-((2-(2-ethoxy-2-oxoethyl)phenoxy)methyl)benzofuran-2-yl)methoxy)phenyl)acetic acid] | > 6.00
9 | NCc1cccc(-c2cccc3cc(COc4ccccc4CCC(=O)O)ccc23)c1 [Compound 43c, 3-(2-((5-(3-(aminomethyl)phenyl)naphthalen-2-yl)methoxy)phenyl)propanoic acid] | < 5.00
10 | NCc1nccc(-c2cc3c(COc4ccccc4CC(=O)O)coc3c3ccoc23)c1F [Compound 289d, 2-(2-((5-(2-(aminomethyl)-3-fluoropyridin-4-yl)benzo[1,2-b:3,4-b′]difuran-3-yl)methoxy)phenyl)acetic acid] | > 6.00
11 | COc1ccc(CC(=O)O)c(OCc2nn(C)c3ccc(-c4cccc(CN)c4)cc23)c1 [Compound 185c, 2-(2-((5-(3-(aminomethyl)phenyl)-1-methyl-1H-indazol-3-yl)methoxy)-4-methoxyphenyl)acetic acid] | > 6.00

More lines, now with the values ahead:

Row | pIC50 | Structure (SMILES)
12 | > 6.00 | COc1ccc(CC(=O)O)c(OCc2c(C(F)F)oc3c(NCC4CC4)cc(-c4cccc(CN)c4)cc23)c1 [Compound 236c, 2-(2-((5-(3-(aminomethyl)phenyl)-7-((cyclopropylmethyl)amino)-2-(difluoromethyl)benzofuran-3-yl)methoxy)-4-methoxyphenyl)acetic acid]
13 | > 6.00 | COc1ccc(CC(=O)O)c(OCc2coc3c(NCC(C)C)cc(-c4cccc(CN)c4)cc23)c1 [Compound 279c, 2-(2-((5-(3-(aminomethyl)phenyl)-7-(isobutylamino)benzofuran-3-yl)methoxy)-4-methoxyphenyl)acetic acid]
14 | > 6.00 | NCc1cccc(-c2ccc3oc(C4CC4)c(COc4ccccc4CC(=O)O)c3c2)c1 [Compound 133f, 2-(2-((5-(3-(aminomethyl)phenyl)-2-cyclopropylbenzofuran-3-yl)methoxy)phenyl)acetic acid]
15 | > 6.00 | COc1cc2occ(COc3ccccc3CC(=O)O)c2cc1-c1cccc(CN)c1 [Compound 69f, 2-(2-((5-(3-(aminomethyl)phenyl)-6-methoxybenzofuran-3-yl)methoxy)phenyl)acetic acid]
16 | > 6.00 | COc1ccc(CC(=O)O)c(OCc2c(C)oc3ccc(-c4cccc(CN)c4O)cc23)c1 [Compound 244d, 2-(2-((5-(3-(aminomethyl)-2-hydroxyphenyl)-2-methylbenzofuran-3-yl)methoxy)-4-methoxyphenyl)acetic acid]
17 | > 6.00 | CC(C)n1nc(COc2ccccc2CC(=O)O)c2cc(-c3cccc([C@H](C)N)c3)ccc21 [Compound 320b, (S)-2-(2-((5-(3-(1-aminoethyl)phenyl)-1-isopropyl-1H-indazol-3-yl)methoxy)phenyl)acetic acid]
18 | > 6.00 | Cc1oc2ccc(-c3cccc(CN)c3)cc2c1COc1ccccc1CC(=O)O [Compound 124f, 2-(2-((5-(3-(aminomethyl)phenyl)-2-methylbenzofuran-3-yl)methoxy)phenyl)acetic acid]
19 | > 6.00 | NCc1cccc(-c2cc(N)c3oc(C(=O)O)c(COc4ccccc4CC(=O)O)c3c2)c1 [Compound 87c, 7-amino-5-(3-(aminomethyl)phenyl)-3-((2-(carboxymethyl)phenoxy)methyl)benzofuran-2-carboxylic acid]
20 | > 6.00 | NCc1cccc(-c2cccc3cc(COc4ccccc4CC(=O)O)oc23)c1 [Compound 19e, 2-(2-((7-(3-(aminomethyl)phenyl)benzofuran-2-yl)methoxy)phenyl)acetic acid]
21 | > 6.00 | CCc1oc2ccc(-c3cccc(CN)c3)cc2c1COc1cc(C)ccc1CC(=O)O [Compound 319c, 2-(2-((5-(3-(aminomethyl)phenyl)-2-ethylbenzofuran-3-yl)methoxy)-4-methylphenyl)acetic acid]
22 | > 6.00 | Cc1oc2c(cc(-c3cccc(CN)c3)c3occc32)c1COc1ccccc1CC(=O)O [Compound 233h, 2-(2-((5-(3-(aminomethyl)phenyl)-2-methylbenzo[1,2-b:3,4-b′]difuran-3-yl)methoxy)phenyl)acetic acid]
23 | > 6.00 | N#Cc1ccc(CC(=O)O)c(OCc2coc3ccc(-c4cccc(CN)c4)cc23)c1 [Compound 57d, 2-(2-((5-(3-(aminomethyl)phenyl)benzofuran-3-yl)methoxy)-4-cyanophenyl)acetic acid]
24 | > 6.00 | Cc1ccc(CC(=O)O)c(OCc2coc3c(C)cc(-c4cccc(CN)c4)cc23)c1 [Compound 313c, 2-(2-((5-(3-(aminomethyl)phenyl)-7-methylbenzofuran-3-yl)methoxy)-4-methylphenyl)acetic acid]
25 | > 6.00 | NCc1cccc(-c2cc([N+](=O)[O-])c3oc(C(=O)O)c(COc4ccccc4CC(=O)O)c3c2)c1 [Compound 59g, 5-(3-(aminomethyl)phenyl)-3-((2-(carboxymethyl)phenoxy)methyl)-7-nitrobenzofuran-2-carboxylic acid]
26 | > 6.00 | NCc1cccc(-c2cc(NCc3cccnc3)c3occ(COc4ccccc4CC(=O)O)c3c2)c1 [Compound 187d, 2-(2-((5-(3-(aminomethyl)phenyl)-7-((pyridin-3-ylmethyl)amino)benzofuran-3-yl)methoxy)phenyl)acetic acid]
